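Dose response: 5 concentrations. Exposure: 48 h. Format: 96-well plates. Endpoint: linear interpolation; highest concentration if not reached. TGI denotes the concentration required for complete inhibition of growth.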
Columns and labels:
Experiment in all cases: DTP human tumour cell line panel, 48 h
[1] = tested on: MCF7 breast
[2] = tested on: HS 578T breast
[3] = tested on: SK-MEL-5 melanoma
[4] = tested on: UACC-62 melanoma
[5] = tested on: BT-549 breast
[6] = tested on: SF-539 CNS
[7] = tested on: UACC-257 melanoma
[8] = tested on: DU-145 prostate
[9] = tested on: 786-0 renal
[10] = tested on: MOLT-4 leukemia
[11] = tested on: MDA-MB-231 breast
[12] = tested on: UO-31 renal
[13] = tested on: A498 renal
[14] = tested on: PC-3 prostate
[15] = tested on: TK-10 renal
[16] = tested on: U251 CNS
[17] = tested on: MDA-N
[18] = tested on: MALME-3M melanoma
[19] = tested on: RPMI-8226 leukemia
[20] = tested on: T-47D breast
[21] = tested on: SK-OV-3 ovarian
[22] = tested on: SF-268 CNS
[23] = tested on: NCI/ADR-RES ovarian
[24] = tested on: OVCAR-8 ovarian
[25] = tested on: HL-60(TB) leukemia
[26] = tested on: RXF 393 renal
[27] = tested on: OVCAR-4 ovarian
[28] = tested on: EKVX NSCLC
[29] = tested on: SNB-19 CNS
[30] = tested on: SW-620 colon
[31] = tested on: MDA-MB-435
[32] = tested on: A549 NSCLC
[33] = tested on: HCT-116 colon
[34] = tested on: LOX IMVI melanoma
[35] = tested on: M14 melanoma
[36] = tested on: CAKI-1 renal
[37] = tested on: SR leukemia
[38] = tested on: HOP-92 NSCLC
[39] = tested on: NCI-H23 lung
[40] = tested on: NCI-H522 lung
[41] = tested on: K-562 leukemia
[42] = tested on: NCI-H460 lung
[43] = tested on: HCC-2998 colon
[44] = tested on: HOP-62 NSCLC
[45] = tested on: HT29 colon
[46] = tested on: KM12 colon
[47] = tested on: IGROV1 ovarian
[48] = tested on: OVCAR-3 ovarian
[49] = tested on: SN12C renal
[50] = tested on: HCT-15 colon
[51] = tested on: ACHN renal
[52] = tested on: NCI-H226 lung
[53] = tested on: COLO 205 colon
[54] = tested on: CCRF-CEM leukemia
[55] = tested on: SF-295 CNS
[56] = tested on: SNB-75 CNS
[57] = tested on: SK-MEL-28 melanoma

Measured: TGI

Cc1nc(C)c(N2CCN(C#N)CC2)c(=O)[nH]1
> 100 µM: all assays above
